Data from patent US20210137809A1, “COSMETIC COMPOSITION FOR WRINKLE REDUCTION OR ANTI-INFLAMMATION, CONTAINING SUBSTANCE P” (Biosolution Co., Ltd, priority 2017, published 2021).

What was measured:
collagenase (MMP-1) = experiment: Collagenase (MMP-1) inhibition effect in skin fibroblasts (Human total MMP-1 kit); type: cell-based; conditions: 24-hr culture, maximum decrease (up to) relative to PBS control, FIG. 4
Protocol: (§1) The collagenase (MMP-1) inhibition effect of the composition including substance P was examined in skin fibroblasts. Human skin fibroblasts were put in a 96-well plate at a density of 3×10^4 CFU/well, and incubated at 37° C. for 24 hours. The medium (FGM, Lonza, USA) was removed, and then 180 μL of a fresh medium was dispensed into each well, and 20 μL of the composition including substance P or substance P dissolved in a phosphate buffer solution (PBS) was added thereto, followed by incubation at 37° C. for 24 hours. In this regard, the concentration of the composition or the substance P added was determined such that its final concentration became a desired concentration, taking into consideration the total volume of the medium. After 24-hr culture, the supernatant was collected, and the amount of collagenase (MMP-1) in the medium was measured using a Human total MMP-1 kit (R&D systems, USA).
(§2) The difference was statistically significant. Statistical analysis was performed using Student's t-test, and the MMP-1 production of each experimental group (*p<0.05, **p<0.01) relative to the control (phosphate buffer solution-treated group) and the MMP-1 productions by substance P dissolved in phosphate buffer solution and the composition of the present invention (#p<0.05, ##p<0.01) were compared.

nitric oxide (NO) = experiment: Nitric oxide (NO)-reducing effect in LPS-treated Raw 264.7 cells (Griess reagent); type: cell-based, mouse; conditions: 100 ng/mL LPS, 24-hr culture, maximum decrease (up to), LPS only = 100%, FIG. 6
Protocol: In inflammatory environments, the nitric oxide (NO)-reducing effect of the composition including substance P was examined in Raw 264.7 cells which are mouse macrophages. […] were put in a 24-well plate at a density of 4×10^5 CFU/well, and incubated at 37° C. for 24 hours. A growth medium for Raw 264.7 cells was prepared by mixing DMEM (Welgene, Korea) with 200 mM of L-glutamine (Gibco, USA). After 24-hr culture, the medium was removed, and then 1 mL of a fresh medium was dispensed into each well. […] In this regard, the concentration of the composition or the substance P added was determined such that its final concentration became a desired concentration, taking into consideration the total volume of the medium.
After 24-hr culture, the supernatant was collected, and 100 μL thereof was added to a 96-well plate, and an equal volume of Griess reagent (Sigma, USA) was added thereto, and the plate was left at room temperature for 15 minutes. Then, absorbance at 540 nm was measured. […] The production amount of nitric oxide (NO) in the group treated with LPS only was regarded as 100%, and the amount of nitric oxide (NO) in the medium was determined.
Significant NO reduction was determined using Student's t-test by comparing the NO amount practically measured in the experimental group with that of the LPS-treated group (*p<0.05, **p<0.01).

[1] = system: collagen synthesis in Human skin fibroblasts; experiment: Collagen synthesis effect in skin fibroblasts (Procollagen Type1-Peptide EIA); type: cell-based; conditions: 24-hr culture, maximum increase (up to) relative to PBS control, FIG. 3
Protocol: as §1, with “collagen synthesis” for “collagenase (MMP-1) inhibition”, “containing” for “including”, “collagen” for “collagenase (MMP-1)”, “Procollagen Type1-Peptide (PIP) EIA” for “Human total MMP-1”, “(TaKaRa, Japan).” for “(R&D systems, USA).”
as §2, with “the effects” for “the MMP-1 production”, “of” for “of each”, “experimental groups” for “experimental group”, “the effects of” for “the MMP-1 productions by”, “(#p<0.05, ##<0.01)” for “(#p<0.05, ##p<0.01)”

[2] = system: inflammatory cytokine IL-6; experiment: Inflammatory cytokine IL-6-reducing effect in LPS-treated Raw 264.7 cells; type: cell-based, mouse; conditions: 100 ng/mL LPS, 24-hr culture, maximum decrease (up to) relative to LPS-treated group, FIG. 5
Protocol: The inflammatory cytokine IL-6-reducing effect of the composition including substance P was examined in Raw 264.7 cells which are mouse macrophages. […] were put in a 24-well plate at a density of 4×10^5 CFU/well, and incubated at 37° C. for 24 hours. A growth medium for Raw 264.7 cells was prepared by mixing DMEM (Welgene, Korea) with 200 mM of L-glutamine (Gibco, USA). After 24-hr culture, the medium was removed, and then 1 mL of a fresh medium was dispensed into each well. To induce intracellular inflammation, 100 ng/mL of LPS (Sigma, USA) was treated thereto, and simultaneously, the composition including substance P or substance P dissolved in a phosphate buffer solution (PBS) was dispensed thereto such that the final volume was 2 mL/well, followed by incubation at 37° C. for 24 hours. In this regard, the concentration of the composition or the substance P added was determined such that its final concentration became a desired concentration, taking into consideration the total volume of the medium. After 24-hr culture, the supernatant was collected, and the amount of inflammatory cytokine IL-6 in the medium was measured by mouse IL-6 immunoassay (R&D systems, USA).
Significant IL-6 reduction was determined using Student's t-test by comparing the IL-6 amount practically measured in the experimental group with that of the LPS-treated group (*p<0.05, **p<0.01).

Arg-Pro-Lys-Pro-Gln-Gln-Phe-Phe-Gly-Leu-Met-NH2 [substance P]
collagenase (MMP-1) production decrease (collagenase (MMP-1)): about 20%
decrease of amount of NO induced by LPS (nitric oxide (NO)): about 10%
collagen synthesis increase [1]: about 20%
decrease of amount of IL-6 induced by LPS [2]: about 20%
